This is an account of results in PMC12057046, “Elucidation of short linear motif-based interactions of the MIT and rhodanese domains of the ubiquitin-specific protease 8” (Biology Direct, 2025).

The first test concerns USP8 MIT domain. Description: Peptide-phage display-based deep mutational scanning (DMS), USP8 MIT domain. To be noted: bait USP8_MIT__P40818_1_142; EFCAB12 (Q6NXP0) 2-17; pair of mutant with wild-type wt_00016 (MDDDYEAYHSLFLSLL); sheet S3.B_ProP-PD_pairs. It counts as binding, human. On the procedure:
The residues of these 16 amino acid-long wild-type peptides were substituted to all natural amino acid residues, except cysteine, in all positions (Supplementary Table S2A). The designed peptide sequences were reverse-translated to oligonucleotides optimized to the codon usage of E. coli. The required flanking regions (5´[…] and 3´[…]) were added for library construction. The library was generated as previously described.
Four rounds of phage selections were carried out using the second generation human disorderome library or the constructed deep mutational scanning library. At least three individual replicates were used for each bait protein. 10 µg of GST-tagged proteins or GST control (diluted in PBS from the stock of proteins kept in the purification elution buffer) were immobilized in 100 µL PBS on a 96-well MaxiSorp (Nunc) plate overnight at 4 °C. The plates were incubated with blocking buffer (with 0.5% BSA in PBS) for 1 h at 4 °C followed by washing with 0.05% Tween 20 in PBS four times. The naïve phage library (10^11 CFU) was diluted in 1/5th volume PEG/NaCl (20% PEG-8000, 0.4 M NaCl) and 1X PBS, incubated on ice for 10 min and centrifuged at 10,000 [drawing 3] g for 10 min. The pellet was resuspended in the volume of PBS (100 µL/ well). The GST-coated control plate was incubated with 100 µL library per well in PBS for 1 h at 4 °C to remove non-specific binders. The supernatant was transferred to the target wells and incubated for 2 h at 4 °C. The wells were washed five times with 0.05% Tween 20 in PBS and the bound phages were eluted with 100 µL per well log-phase E. coli OmniMAX by incubating at 37° C while shaking. After 30 min, M13KO7 helper phages were added and incubated for an additional 45 min. The bacterial cultures were transferred to 1 mL 2YT supplemented with 100 µg/mL carbenicillin, 30 µg/mL kanamycin and 0.3 mM IPTG and grew overnight at 37 °C while shaking. The following day the cultures were centrifuged for 10 min at 2,000 [drawing 4] g, 4 °C. 1/10th volume of 10 [drawing 5] PBS was added to adjust the pH and heated at 65 °C for 10 min. The phage pools from each round were used as in-phages for the next round of selections.
The samples were prepared for NGS as previously described. Peptide-coding regions of the enriched phage pools were amplified and barcoded using Phusion High-Fidelity PCR Master Mix (Thermo Fisher) for 22 cycles and confirmed by 2% agarose gel electrophoresis. The PCR products were normalized with 25 µL Mag-bind Total Pure NGS beads (Omega Biotek) and 10 µL of each eluted sample (Qiagen Elution Buffer) was pooled and cleaned-up with a PCR purification kit (Qiagen). The PCR product was confirmed by 2% agarose electrophoresis and the band was extracted with QIAquick Gel extraction Kit (Qiagen) and eluted with 30 µL TE buffer. The dsDNA was quantified using QuantiT PicoGreen dsDNA Assay Kit (Thermo Fisher) and sent for NGS (Illumina MiSeq v3, 1 × 150 bp read setup, 20% PhiX, NGI SciLifeLab facility, Sweden). The NGS data were demultiplexed, adapter regions were trimmed and sequences with an average quality of at least 20 were translated to peptide sequences. The NGS data were analysed using custom Python scripts. The total read NGS counts for each selection experiment of each peptide sequence were compiled and annotated in PepTools (https://slim.icr.ac.uk/tools/peptools/). Since ProP-PD is in essence a competition assay, the possibility of the input phage library influencing the selection outcome was explored. For this, the Pearson correlation coefficient, p-value and coefficient of determination were calculated for all peptide NGS count fractions in the library coverage vs. in the selections results (Supplementary Fig. S7; Supplementary Table S2B; Supplementary Table S3B; Supplementary Table S7B). Pearson correlation coefficient and p-value were calculated using Python’s SciPy library. […]
Sequence MDDDYEDYHSLFLSLL [mut_04429] gave a hit_pair_ratio of 4.40.
Consider MDDDYEEYHSLFLSLL [mut_04430], for which the hit_pair_ratio is on record as 4.58.
The same measure, in the same setting: in the case of MDDDYEFYHSLFLSLL [mut_04431] it was 83.09; in that of MDDDYEGYHSLFLSLL [mut_04432], 1.19.
On the same count and under the same terms, in the case of MDDDYEIYHSLFLSLL [mut_04434] it was 18.85.
Take MDDDYEKYHSLFLSLL [mut_04435]: the hit_pair_ratio is listed as 48.44.
Still for that read-out and setting: in the case of MDDDYELYHSLFLSLL [mut_04436] it was 7.38.
The same measure, in the same setting: in the case of MDDDYEMYHSLFLSLL [mut_04437] it was 59.15; in that of MDDDYENYHSLFLSLL [mut_04438], 2.33; in that of MDDDYEPYHSLFLSLL [mut_04439], 9.13.

Staying with this test, now noted: sheet S3.B_ProP-PD_pairs; bait USP8_MIT__P40818_1_142; ratio within the wild-type/mutant pair, larger over smaller averaged fraction (direction from fraction_wt and fraction_mut).
Consider MDDDYEAYHSHFLSLL, for which the hit_pair_ratio stood at 24.22.
Same read-out and setting: the result for MDDDYEAYHSIFLSLL reads 10.94; that for MDDDYEAYHSKFLSLL, 169.63.
Still for that read-out and setting: in the case of MDDDYEAYHSLALSLL it was 337.92; in that of MDDDYEAYHSLFGSLL, 337.92.
In the case of MDDDYEAYHSLFISLL, the hit_pair_ratio is recorded as 5.63.
The same measure, in the same setting: in the case of MDDDYEAYHSLFLALL it was 2.81; in that of MDDDYEAYHSLFLFLL, 5.36.
On the same count and under the same terms, in the case of MDDDYEAYHSLFLHLL it was 2.92; in that of MDDDYEAYHSLFLLLL, 4.48.
On the same count and under the same terms, in the case of MDDDYEAYHSLFLMLL it was 26.03; in that of MDDDYEAYHSLFLNLL, 33.93; in that of MDDDYEAYHSLFLPLL, 337.92.
For the sequence MDDDYEAYHSLFLSAL, the hit_pair_ratio worked out at 337.92.
On the same count and under the same terms, in the case of MDDDYEAYHSLFLSGL it was 337.92; in that of MDDDYEAYHSLFLSHL, 84.48.
Same read-out and setting: the result for MDDDYEAYHSLFLSLF reads 169.63.
The same measure, in the same setting: the result for MDDDYEAYHSLFLSLI reads 168.96.
Turning to MDDDYEAYHSLFLSLK, the hit_pair_ratio amounted to 19.88.
On the same count and under the same terms, the result for MDDDYEAYHSLFLSPL reads 33.79; that for MDDDYEAYHSLFLSQL, 337.92; that for MDDDYEAYHSLFLSRL, 337.92.
Still for that read-out and setting: in the case of MDDDYEAYHSLFLSSL it was 337.92; in that of MDDDYEAYHSLFLTLL, 2.44; in that of MDDDYEAYHSLFLWLL, 2.95.
As for MDDDYEAYHSLFLYLL, the hit_pair_ratio is on record as 8.88.
Still for that read-out and setting: in the case of MDDDYEAYHSLFVSLL it was 37.55; in that of MDDDYEAYHSLKLSLL, 30.72.
On the same count and under the same terms, in the case of MDDDYEAYHSLSLSLL it was 337.92; in that of MDDDYEAYHSLYLSLL, 1.65; in that of MDDDYEAYHSMFLSLL, 168.96.
For MDDDYEAYHSNFLSLL, the hit_pair_ratio came out at 168.96.
On to MDDDYEAYHSPFLSLL, for which the hit_pair_ratio is 169.63.
Still for that read-out and setting: in the case of MDDDYEAYHSRFLSLL it was 172.84; in that of MDDDYEAYHTLFLSLL, 169.63.
Same read-out and setting: in the case of MDDDYEAYHVLFLSLL it was 37.55.
Consider MDDDYEAYHWLFLSLL, for which the hit_pair_ratio worked out at 1.50.
The same measure, in the same setting: the result for MDDDYEAYHYLFLSLL reads 1.94; that for MDDDYEAYISLFLSLL, 13.00; that for MDDDYEAYKSLFLSLL, 84.48.
Still for that read-out and setting: the result for MDDDYEAYLSLFLSLL reads 22.58; that for MDDDYEAYNSLFLSLL, 169.63.
On the same count and under the same terms, in the case of MDDDYEAYQSLFLSLL it was 28.27; in that of MDDDYEAYSSLFLSLL, 33.87.
With MDDDYEAYWSLFLSLL, the hit_pair_ratio stood at 28.16.
Same read-out and setting: in the case of MDDDYEAYYSLFLSLL it was 24.06.
